Experimental data published in patent US9072762B2, “Natural composition to decrease effects of a high fat diet” (Board of Supervisors of Louisiana State University And …, priority 2009, dated 2015).

Legend:
[1] = assay type: in vivo, rat; conditions: for Oral bioavailability / absorption: rat, in vivo
Protocol: Thirty-two normal male SD rats were used in the experiment. Prior to treatment, all rats were fasted overnight. The treated group (n=24) received the RUS extract at a dose of 1 g/kg of body weight (0.1% w/w), and the control group (n=8) received the same volume of water via daily gavage for 3 consecutive days. All rats were given free access to food and water after the gavage. Urine was collected cumulatively for 24 hours on the third day after treatment began.

bFGF = experiment: Western blot of HUVEC cell lysates for bFGF expression; assay type: cell-based, human; conditions: 24 hrs, concentrations up to about 40 μg/ml
Protocol: (§1) The HUVEC assay used human umbilical vein endothelial cells purchased from the American Type Culture Collection (ATCC # CRL-1730, Manassas, Va.). Human umbilical vein endothelial cells (HUVEC) were grown in M199 media containing 20% fetal bovine serum, 30 μg/ml endothelial cell growth supplements, 4 mM L-glutamin, 100 U/ml penicillin, and 100 μg/ml streptomycin. Cells were incubated at 37° C. in a humidified atmosphere of 5% CO2. […] Cells were then lysed with lysis buffer containing 20 mM MOPS, 2 mM EGTA, 5 mM EDTA, 30 mM NaF, 40 mM (3-glycerophosphate, 20 mM sodium pyruvate, 0.5% Triton X-100, and 1 mM sodium orthovanadate with protease inhibitor cocktail (Sigma), and the cell lysates were subjected to protein analysis and western blotting analysis to assess for VEGF (vascular endothelial growth factor), FGF or bFGF (basic fibroblast growth factor), and FLK-1 (a VEGFR2 receptor protein) using the relevant antibodies of VEFG (R&D System), bFGF (Upstate Biotechnology); FLK-1 (Santa Cruz Biotechnology). (See Ma, J. et al., “PTEN regulate angiogenesis through PI3k/AktNEGF signaling pathway in human pancreatic cancer cells,” Mol. Cell Biochem., vol. 331, pp. 161-171 (2009); and Sukhthanjar, M., et al., “A green tea component suppresses posttranslational expression of basic fibroblast growth factor in colorectal cancer. Gastroenterology,” vol. 134, pp. 1972-1980 (2008)). β-Actin was used as a quality control of the assays.

VEGF = experiment: Western blot of HUVEC cell lysates for VEGF expression; assay type: cell-based, human; conditions: 24 hrs, concentrations up to about 40 μg/ml
Protocol: as §1

[2] = tested on: FLK-1 (a VEGFR2 receptor protein); experiment: Western blot of HUVEC cell lysates for FLK-1 expression; assay type: cell-based, human; conditions: 24 hrs, concentrations up to about 40 μg/ml
Protocol: The HUVEC assay used human umbilical vein endothelial cells purchased from the American Type Culture Collection (ATCC # CRL-1730, Manassas, Va.). Human umbilical vein endothelial cells (HUVEC) were grown in M199 media containing 20% fetal bovine serum, 30 μg/ml endothelial cell growth supplements, 4 mM L-glutamin, 100 U/ml penicillin, and 100 μg/ml streptomycin. Cells were incubated at 37° C. in a humidified atmosphere of 5% CO2. […] Cells were then lysed with lysis buffer containing 20 mM MOPS, 2 mM EGTA, 5 mM EDTA, 30 mM NaF, 40 mM (3-glycerophosphate, 20 mM sodium pyruvate, 0.5% Triton X-100, and 1 mM sodium orthovanadate with protease inhibitor cocktail (Sigma), and the cell lysates were subjected to protein analysis and western blotting analysis to assess for VEGF (vascular endothelial growth factor), FGF or bFGF (basic fibroblast growth factor), and FLK-1 (a VEGFR2 receptor protein) using the relevant antibodies of VEFG (R&D System), bFGF (Upstate Biotechnology); FLK-1 (Santa Cruz Biotechnology). (See Ma, J. et al., “PTEN regulate angiogenesis through PI3k/AktNEGF signaling pathway in human pancreatic cancer cells,” Mol. Cell Biochem., vol. 331, pp. 161-171 (2009); and Sukhthanjar, M., et al., “A green tea component suppresses posttranslational expression of basic fibroblast growth factor in colorectal cancer. Gastroenterology,” vol. […]

[3] = rats, 24 hr urine after oral RUS 1.0 g/kg of body weight

Oral bioavailability / absorption [1] | Unmetabolized compound in the urine [1, 3] | Unmetabolized compound in urine as % of amount orally administered [1, 3] | SMILES | Expression of bFGF (bFGF) | Expression of VEGF (VEGF) | Expression of FLK-1 [2]
orally bioavailable | – | – | O=c1oc2c(O)c(O)cc3c(=O)oc4c(O)c(O)cc1c4c23 [ellagic acid] | did not suppress the expression of bFGF | inhibited the expression of VEGF in a concentration-dependent manner | –
– | 91.7 µg | about 4.5% | O=C(O)c1cc(O)c(O)c(O)c1 [gallic acid] | did not suppress the expression of bFGF | inhibited the expression of VEGF in a concentration-dependent manner | slightly reduced the expression of FLK-1
orally bioavailable | – | – | C=C1C[C@@]23CC[C@H]4[C@@](C)(CCC[C@@]4(C)C(=O)O[C@@H]4O[C@H](CO)[C@@H](O)[C@H](O)[C@H]4O)[C@@H]2CC[C@]1(O[C@@H]1O[C@H](CO)[C@@H](O)[C@H](O)[C@H]1O)C3 [rubusoside] | did not inhibit the expression of either bFGF or VEGF | did not inhibit the expression of either bFGF or VEGF | reduced the expression of FLK-1
